Activity calls are given as the source filed them. The rule behind the calls is not given here.
Tested on: not listed separately
Assay: (§1) Antiproliferative activity against Con A-induced BALB/c mouse splenocytes at 30 uM after 48 hrs by CCK-8 method relative to control
Assay type: functional
Conditions: Splenocyte

Row | Structure (SMILES) | inhibition at 30 µM
1 | OCCC[C@H]1N[C@@H](CO)[C@H](O)[C@H](O)[C@H]1O | 19.3%
2 | O=C(O)CC[C@H]1N[C@H](CO)[C@H](O)[C@H](O)[C@H]1O | 4.9%
3 | CCCCCCN1[C@H](CO)[C@H](O)[C@H](O)[C@@H](O)[C@H]1CCl | 38.9%
4 | O=C(O)CC[C@H]1N[C@@H](CO)[C@H](O)[C@H](O)[C@H]1O | 6.4%
5 | N#CC[C@H]1N[C@H](CO)[C@H](O)[C@H](O)[C@H]1O | 27.9%
6 | CCCCCCCCCN1[C@H](CCl)[C@H](O)[C@@H](O)[C@@H](O)[C@@H]1CO | 43.6%
7 | OC[C@H]1N[C@H](CCl)[C@H](O)[C@@H](O)[C@H]1O | 20.8%
8 | OC[C@@H]1N[C@H](CO)[C@H](O)[C@@H](O)[C@H]1O | 9.7%
9 | O=C(O)[C@H]1N[C@H](CO)[C@H](O)[C@H](O)[C@H]1O | 7.2%
10 | CCCCCCCCCN1[C@H](CO)[C@H](O)[C@H](O)[C@@H](O)[C@H]1CCl | 54.1%
11 | OCCC[C@H]1N[C@H](CO)[C@H](O)[C@H](O)[C@H]1O | 14.6%
12 | O=C(O)[C@@H]1N[C@@H](CO)[C@H](O)[C@H](O)[C@H]1O | 21.2%
13 | CCCCCCN1[C@H](CO)[C@H](O)C(O)[C@@H](O)[C@H]1CO (stereo not given in full) | 25.5%
14 | OC[C@H]1C[C@@H](O)[C@@H](O)[C@@H](CO)N1 | 22.3%
15 | OC[C@H]1N[C@H](CO)[C@H](O)C(O)[C@H]1O (stereo not given in full) | 7.8%

Tested on: Splenocyte
Assay: as §1
Assay type: functional
Conditions: not given

Row | Structure (SMILES) | inhibition
16 | O=C(O)[C@H]1N[C@@H](CO)[C@H](O)[C@H](O)[C@H]1O | inactive

Tested on: not listed separately
Assay: Cytotoxicity against BALB/c mouse splenocytes up to 110 uM after 48 hrs by CCK-8 method
Assay type: cell-based
Conditions: splenocyte

Row | Structure (SMILES) | Activity
17 | CCCCCCCCCN1[C@H](CCl)[C@H](O)[C@@H](O)[C@@H](O)[C@@H]1CO | Non-toxic
18 | CCCCCCCCCN1[C@H](CO)[C@H](O)[C@H](O)[C@@H](O)[C@H]1CCl | Non-toxic

Tested on: not listed separately
Assay: Antiproliferative activity against Con A-induced BALB/c mouse splenocytes after 48 hrs by CCK-8 method relative to control
Assay type: functional, cell-based
Conditions: Splenocyte

Row | Structure (SMILES) | IC50
19 | CCCCCCCCCN1[C@H](CCl)[C@H](O)[C@@H](O)[C@@H](O)[C@@H]1CO | 45 µM
20 | CCCCCCCCCN1[C@H](CO)[C@H](O)[C@H](O)[C@@H](O)[C@H]1CCl | 22 µM

From ChEMBL document CHEMBL3217523, “Design and syntheses of some iminosugar derivatives as potential immunosuppressants” (Medchemcomm, 2011)
